Test results from patent US20240165092A1, “USE OF AN OREXIN 2 RECEPTOR AGONIST FOR POST OPERATION RECOVERY” (Takeda Pharmaceutical Limited Company, priority 2021, published 2024).

Columns and labels:
Format in all cases: in vivo, rat
[1] = tested on: Male Sprague-Dawley rats; experiment: Fentanyl (0.1 mg/kg)-induced sedation assessed by righting reflex; settings: for Duration of sedation (min) (Mean): fentanyl 0.1 mg/kg SC, vehicle 88.8
Description: Male Sprague-Dawley rats, 8 weeks-age, were purchased from Charles river Japan. In this study, LORR was used as an indicator of sedation. […] As vehicle-treated control, 10.5% (w/v) Captisol®/1.5 mM Na2HIPO4 in distilled water was administered. The time to recovery from LORR was recorded as duration of sedation.

[2] = tested on: Male Sprague-Dawley rats; experiment: Fentanyl (0.1 mg/kg)-induced respiratory depression assessed by whole body plethysmography (WBP)
[3] = tested on: Male Sprague-Dawley rats; experiment: Time to recovery from isoflurane-induced anesthesia assessed by righting reflex; settings: for Duration of anesthesia (min) (Mean): isoflurane anesthesia 30 min, vehicle 6.15
Description: Male Sprague-Dawley rats, 8 weeks-age, were purchased from Charles river Japan. To induce and maintain isoflurane anesthesia, rats were placed in a pre-filled anesthesia induction chamber isoflurane 4%. The induction of anesthesia was defined as the rat's inability to right itself into the prone position (loss of righting reflex: LORR) after it was placed in the supine position in a cage. After confirming LORR, rats were exposed to 3% isoflurane using a facemask and maintained for 30 min. Fifteen minutes after LORR, Compound (I) was administered subcutaneously (SC) to rats in a volume of 5 mL/kg of body weight (BW). As vehicle-treated control, 10.5% (w/v) Captisol® (CyDex Pharmaceuticals, KS, USA)/1.5 mM Na2HIPO4 in distilled water was administered to rats. Thirty minutes after confirming LORR, isoflurane inhalation was terminated and time to recovery from LORR was recorded as duration of anesthesia. Body temperature was maintained at 37.0-37.5° C. using a heating pad during and after anesthesia.

[4] = tested on: Male Sprague-Dawley rats; experiment: Time to recovery from propofol-induced anesthesia assessed by righting reflex; settings: for Duration of anesthesia (min) (Mean): propofol anesthesia 30 min, vehicle 12.8
Description: Male Sprague-Dawley rats, 8 weeks-age, were purchased from Charles river Japan. To induce and maintain propofol anesthesia, a bolus dose of propofol (10 mg/kg) was administered intravenously to rats. After confirming LORR, rats were gently placed in the supine position on a heating pad to maintain body temperature at 37.0-37.5° C. Subsequently, continuous administration of propofol at 60 mg/kg/hr was performed for 30 min. Fifteen minutes after LORR, Compound (I) was administered SC to rats in a volume of 5 mL/kg of BW. As vehicle-treated control, 10.5% (w/v) Captisol®/1.5 mM Na2HPO4 in distilled water was administered to rats. Thirty minutes after confirming LORR, propofol infusion was terminated and time to recovery from LORR was recorded as duration of anesthesia.

[5] = tested on: Male Sprague-Dawley rats; experiment: Fentanyl-induced analgesic effects in pain model of postoperative skin incision
[6] = tested on: Male Sprague-Dawley rats; experiment: Fentanyl-induced analgesic effects in formalin test; settings: for Phase I (No. of flinching) / Phase II (No. of flinching): formalin test; for Phase I (No. of flinching): 1 to 11 min; for Phase II (No. of flinching): 16 to 61 min
[7] = Compound (I) 10 mg/kg SC 15 min before fentanyl 0.1 mg/kg SC, 0 to 30 min after fentanyl
[8] = Compound (I) 1.0 mg/kg SC 15 min after LORR
[9] = Compound (I) 3.0 mg/kg + fentanyl 0.045 mg/kg
[10] = Compound (I) 10 mg/kg + fentanyl 0.045 mg/kg

COC(=O)N1CCCC(NS(C)(=O)=O)C1COC1CCC(c2ccccc2)CC1 (stereo not drawn) [Compound (I), methyl 3-((methylsulfonyl)amino)-2-(((4-phenylcyclohexyl)oxy)methyl)piperidine-1-carboxylate]
Duration of sedation (min) (Mean) ([1]; Compound (I) 1.0 mg/kg SC 10 min after fentanyl): 81.3 min
Duration of sedation (min) (Mean) ([1]; Compound (I) 3.0 mg/kg SC 10 min after fentanyl): 67.0 min
Duration of sedation (min) (Mean) ([1]; Compound (I) 10 mg/kg SC 10 min after fentanyl): 42.9 min
duration of fentanyl-induced sedation assessed by righting reflex ([1]; result in words): reduced duration of fentanyl-induced sedation
MV (mL/min) (Mean) [2, 7]: 206 mL/min
RR (breaths/min) (Mean) [2, 7]: 144 breaths/min
TV (mL/stroke) (Mean) [2, 7]: 1.61 mL/stroke
fentanyl-induced respiratory depression ([2]; result in words): suppressed fentanyl-induced respiratory depression
RR, TV and MV compared to that of vehicle group ([2]; with fentanyl 0.1 mg/kg, result in words): increased RR, TV and MV
Duration of anesthesia (min) (Mean) ([3]; Compound (I) 0.3 mg/kg SC 15 min after LORR): 3.92 min
Duration of anesthesia (min) (Mean) [3, 8]: 3.06 min
time to recovery from isoflurane-induced anesthesia assessed by righting reflex ([3]; result in words): reduced time to recovery
Duration of anesthesia (min) (Mean) [4, 8]: 11.7 min
Duration of anesthesia (min) (Mean) ([4]; Compound (I) 3.0 mg/kg SC 15 min after LORR): 6.70 min
Duration of anesthesia (min) (Mean) ([4]; Compound (I) 10 mg/kg SC 15 min after LORR): 6.00 min
time to recovery from propofol-induced anesthesia assessed by righting reflex ([4]; result in words): reduced time to recovery
pain threshold 1 hr after the skin incision ([5]; Compound (I) 3.0 mg/kg SC 15 min before incision + fentanyl 0.03 mg/kg SC): 28.5 g
pain threshold 1 hr after the skin incision ([5]; Compound (I) 10 mg/kg SC 15 min before incision + fentanyl 0.03 mg/kg SC): 32.2 g
effect on the analgesic effect of fentanyl ([5]; postoperative skin incision model, fentanyl 0.03 mg/kg, result in words): did not counteract the analgesic effect of fentanyl
effect on the analgesic effect of fentanyl ([6]; formalin pain model, fentanyl 0.045 mg/kg, result in words): did not counteract the analgesic effect of fentanyl
Phase I (No. of flinching) [6, 9]: 5
Phase I (No. of flinching) [6, 10]: 4
Phase II (No. of flinching) [6, 9]: 52
Phase II (No. of flinching) [6, 10]: 45
